# Experimental data reported in US20230174538A1, “Tricyclic heterocycles” (Merck Patent GmbH, priority 2020, published 2023).
# Columns and labels:
# SW620 Yap KO cells = test: Viability assay in SW620 Yap KO (Yap independent) cells, CyQUANT; format: cell-based; details: Homo sapiens, SW-620
# Description: (§1) Viability Assay in NCI-H226 (Yap-Dependent) and SW620 Yap KO (Yap Independent) Cells
# (§2) The ability of YAP-TEAD inhibitors to inhibit tumor cell growth was evaluated using two different cell lines: NCI-H226, which is a YAP dependent cell line, and SW620 cells, where YAP and TAZ were knocked out using CRISPR to generate a YAP independent cell line.
# (§3) For the assay, cells were treated in duplicates with the test compounds in a 10-point dose, 1:3 dilution steps, with the top concentration starting at 30 μM (final concentration in assay). After a 96 hour incubation at 37° C., 95% rH, and 5% CO2, a cell-permeant DNA-binding dye that stains only healthy cells (CyQUANT®, Promega) was added to the cells, allowing the quantification of cell viability.
# (§4) Cell Media: The NCI-H226 cells were cultured in the following media: RPMI 1640, +10% FBS, +1× GlutaMAX, +10 mM HEPES, +0.5% Pen/Strep. The SW620-KO cells were cultured in the following media: DMEM/F-12, +10% FBS, +1× GlutaMAX, +10 mM HEPES, +0.5% Pen/Strep.
# (§5) Reagents: The reagents used are listed below:
# (§6) Cell culture: The cells were examined using an inverted microscope to check for health, cell density, etc. To dissociate adherent cells, the monolayer of cells was washed once with pre-warmed PBS. After removing the PBS, 3 ml pre-warmed Accutase was added to a F75 flask, dispersed evenly and the flask was allowed to sit in incubator for ˜4-5 minutes.
# (§7) When a single cell suspension was obtained, 7 ml of prewarmed growth media was added and resuspended with the cells. The cell suspension was transferred to a sterile 15 ml conical centrifuge tube, and spun for 5 min at 300×g, RT. The supernatant was discarded and the pellet was resuspended in 10 ml of pre-warmed growth media.
# (§8) The total cell count was determined, and 20 μl of the desired cell number was added to each well of a 384 well plate using a Multidrop Combi. The plates were then incubated for 24 hours at 37° C., 95% rH, and 5% CO2.
# (§9) Compound treatment: 24 hours after seeding, the cells were treated with compounds.
# (§10) A 1:333 dilution of compounds, diluted in DMSO, was made to get a final concentration of 0.3% DMSO per well. To transfer the compounds to the assay plate, 120 nl was shot from Labcyte low dead volume plates to the cell plates containing 20 μl media/well with the ECHO 555 liquid handling system.
# (§11) After treatment, the cells were fed with 20 μl fresh pre-warmed assay media using a Multidrop combi.
# (§12) The assay plates were then incubated for 96 h at 37° C., 95% rH, and 5% CO2.
# (§13) 96 h after treatment 30 μl of CyQuant® reagent was added to the assay plates using a Multidrop combi in the dark. The plates were then incubated for 1 hour at 37° C., 95% rH and 5% CO2. Thereafter, the assay plates were removed from the incubator and allowed to equilibrate to RT for 30 min in the dark without lid. Finally, they were measured using an EnVision microplate reader with a FITC bottom read program.
# YAP-TEAD interaction = test: SK-HEP-1 reporter assay (8xTEAD responsive elements driving NanoLuc luciferase); format: cell-based; details: Homo sapiens, SK-HEP1, SK-HEP-1 reporter assay
# How it was run: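 SK-HEP-1 cells stably carrying an 8×TEAD-element NanoLuc reporter were treated in duplicate with 10-point dilutions from a top final 30 μM (0.3% DMSO). After 24 h at 37 °C, luciferase activity was read by luminescence with NanoGlo lysis/substrate reagent, and IC50 values were derived.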
# [1] = system: NCI-H226 human mesothelioma tumor cells; test: NCI-H226 in vivo efficacy study (subcutaneous xenograft); details: H2d Rag2 female mice, NCI-H226 tumors, po qd for 29 days
# Description: NCI-H226 In Vivo Efficacy Study
# 7-9-week-old H2d Rag2 female mice (own breeding, Taconic-Denmark) were inoculated subcutaneously with 5×10^6 NCI-H226 human mesothelioma tumor cells in the right flank. Tumor growth and body weight was measured twice weekly using caliper. Tumor volume was calculated using the formula TV=L×W×W/2.
# When tumor volume reached approximately 75-150 mm^3, animals were randomized (Day 0) into treatment groups (n=9-10/group) and treated perorally (po) once daily (qd) for 29 days with either vehicle (20% hydroxypropyl β-cyclodextrin in 50 mM PBS pH 7.4) or Compound no. 2. Compound no. 2 was tested at dosing levels of 1, 3, 10, 30, and 100 mg/kg, respectively. Results are depicted in FIG. 1 (tumor growth over time for vehicle group and each dosage group) and FIG. 2 (final tumor volume of vehicle group and each dosage group).
# Statistical analysis of tumor volumes between treatment groups was done using repeated measures analysis of covariance (RM-ANCOVA) in a linear mixed effects model followed by least-squares means pairwise comparisons.
# The animal experiment was performed under regulation of the German animal welfare act and in accordance with the EU laboratory animal directive for the area of animal experiments.
# NCI-H226 cells = test: Viability assay in NCI-H226 (Yap-dependent) cells, CyQUANT; format: cell-based; details: Homo sapiens
# Description: as §1, §2, §3, §4, §5, §6, §7, §8, §9, §10, §11, §12, §13
IC50 (SW620 Yap KO cells) [nM],IC50 (YAP-TEAD interaction) [nM],melting point [°C],IC50 (NCI-H226 cells) [nM],SMILES,dosing levels showing maximal tumor growth inhibition [1] [mg/kg],"tumor growth inhibition compared to vehicle treated group ([1]; 1, 3, 10, 30 and 100 mg/kg, all tested dosing levels, p-value <0.001)"
> 30000,1 to 10,300,1 to 100,"Cn1cc2c3cc(C(=O)NC4CC4)ccc3n(-c3ccc(C(F)(F)F)nc3)c2n1 [Example 27, N-cyclopropyl-2-methyl-8-[6-(trifluoromethyl)pyridin-3-yl]-2H,8H-pyrazolo[3,4-b]indole-5-carboxamide]",–,–
1000 to 10000,10 to 100,169 to 171,100 to 1000,"Cc1nc2c(s1)c1cc(C(=O)O)ccc1n2-c1ccc(C(F)(F)F)cc1 [Example 25, 2-methyl-4-[4-(trifluoromethyl)phenyl]-[1,3]thiazolo[4,5-b]indole-7-carboxylic acid]",–,–
10000 to 30000,1 to 10,185 to 187,1000 to 10000,"C=CC(=O)NCc1ccc2c(c1)c1cn(C)nc1n2-c1ccc(C(F)(F)F)cc1 [Example 21, N—([2-methyl-8-[4-(trifluoromethyl)phenyl]pyrazolo [3,4-b]indol-5-yl]methyl)prop-2-enamide]",–,–
> 30000,100 to 10000,110 to 111,1000 to 10000,"Cn1cc2c3cc(C(=O)O[C@@H]4O[C@H](C(=O)O)[C@@H](O)[C@H](O)[C@H]4O)ccc3n(-c3ccc(C(F)(F)F)cc3)c2n1 [Example 30, (2S,3S,4S,5R,6S)-3,4,5-trihydroxy-6-{2-methyl-8-[4-(trifluoromethyl)phenyl]-2H,8H-pyrazolo[3,4-b]indole-5-carbonyloxy}oxane-2-carboxylic acid]",–,–

# Second part, the molecule before the results:
SMILES,IC50 (SW620 Yap KO cells) [nM],IC50 (YAP-TEAD interaction) [nM],melting point [°C],IC50 (NCI-H226 cells) [nM],dosing levels showing maximal tumor growth inhibition [1] [mg/kg],"tumor growth inhibition compared to vehicle treated group ([1]; 1, 3, 10, 30 and 100 mg/kg, all tested dosing levels, p-value <0.001)"
"Cn1cc2c3cc(C(=O)O)ccc3n(-c3ccc(C(F)(F)F)cc3)c2n1 [Example 2, 2-methyl-8-[4-(trifluoromethyl)phenyl]-2H,8H-pyrazolo[3,4-b]indole-5-carboxylic acid]",> 30000,1 to 10,–,–,> 10,Significant tumor growth inhibition
"Cn1cc2c3cc(CNC(=O)CCl)ccc3n(-c3ccc(C(F)(F)F)cc3)c2n1 [Example 24, 2-chloro-N—([2-methyl-8-[4-(trifluoromethyl)phenyl]pyrazolo[3,4-b]indol-5-yl]methyl)acetamide]",1000 to 10000,100 to 10000,221 to 222,100 to 1000,–,–
"C=CC(=O)Nc1ccc2c(c1)c1cn(C)nc1n2-c1ccc(C(F)(F)F)cc1 [Example 20, N-[2-methyl-8-[4-(trifluoromethyl)phenyl]pyrazolo[3,4-b]indol-5-yl]prop-2-enamide]",10000 to 30000,1 to 10,223 to 224,100 to 1000,–,–
"CCOc1ccc(-n2c3ccc(C(=O)O)cc3c3cn(C)nc32)cc1 [Example 15, 8-(4-Ethoxyphenyl)-2-methyl-2H,8H-pyrazolo[3,4-b]indole-5-carboxylic acid]",> 30000,10 to 100,179 to 181,100 to 1000,–,–
"Cn1cc2c(n1)c1cc(C#N)ccc1n2-c1ccc(C(F)(F)F)cc1 [Example 19, 2-methyl-4-[4-(trifluoromethyl)phenyl]pyrazolo [4,3-b]indole-7-carbonitrile]",> 30000,> 10000,208 to 210,> 10000,–,–
